This assay relates to rd1 mutant mice retinas (retinal photoreceptors). As to the kind of experiment: Murine rd1 retinal explant model for retinitis pigmentosa: photoreceptor cytoprotection in vitro. Conditions: 1 μM. In kind it is cell-based, mouse. The text has this:
Retinas were dissected at postnatal day 7 from rd1 mutant mice (Bowes et al., 1990 Nature 347:677; Frasson et al., 1999 Nat. Med. 5:1183), which carry a spontaneous cGMP phosphodiesterase mutation in retinal rod photoreceptors, leading to rapid and premature rod cell apoptosis in this animal model for the ophthalmic degenerative disease retinitis pigmentosa (RP); control retinas were from the background strain (C3H). Retinas were mounted flat on nitrocellulose membranes attached to culture dish inserts and maintained in serum-free R16 culture medium for 21 days, reflecting a stage corresponding to postnatal day 28 (Caffe et al., 2001 J. Chem. Neuroanat. 22:263). […] Slides containing the sections were coded and scored using light microscopy, by counting the rows of photoreceptors in the outer nuclear layer of the retina for five fields from each section. […] Typically, six sections from each preparation were scored, representing different cutting depths, and the collected averages from the six slides were averaged to yield an average value of remaining rows of retinal photoceptors per retina, which value was used for statistical analysis. Data were analyzed by Student's paired t-test; ratios were also calculated of treated:untreated retinas from each intra-animal pair and analyzed by Student's one-group t-test, with the population mean set to 1.0.

Take `CO/N=C1\CCC2C3CCc4cc(O)c(C56CC7CC(CC(C7)C5)C6)cc4C3CC[C@]12C` (some centres unmarked) [compound 5]: the “No. Rows Photoreceptors” value (rd1 retinal explant, 21 days of culture, n = 4, paired t-test p = 0.038 vs contralateral DMSO control (1.87 ± 0.11)) came out at 2.11 ± 0.13. Further, where the note is “ratio of photoreceptor rows, treated:untreated retina of each intra-animal pair, 21 days, 1-group t-test p = 0.144”, the “Treated:Untreated” value was found to be 1.10 ± 0.10.

Values taken from US7304171B2, “Compounds and methods for cytoprotection” (Migenix Corp., priority 2004, dated 2007).
